How the values were obtained:
Assay type in all cases: cell-based, human
[1] = test system: cytokine mRNA expression in macrophages; test: Effects of VentX knockdown on cytokine mRNA expression in macrophages (real-time PCR); design: unit not given here; conditions: macrophages transfected with siRNA; classical activation by LPS plus IFN-γ
Experimental: Macrophages were generated through incubation of freshly isolated monocytes with 100 ng/mL M-CSF for 4 days. These macrophages were then transfected with siGFP or siVentX, respectively, and further cultured in RPMI 1640 medium for additional 3 days. Thereafter, cells were exposed to 1 μg/mL LPS plus 20 ng/mL γ-IFN for 6 hours. (A) Surface staining of CD40, CD80, CD86 and HLA-DR and intracellular staining of TNF-α and IL1-β were analyzed by flow cytometry. (B) Secreted TNF-α, IL1-β and IL12p70 from culture supernatants were determined with ELISA kits. (C) Reactive oxygen species (ROS) from siGFP or siVentX transfected macrophages were analyzed with fluorescence microscope (left) and flow cytometry (middle). […] (D) Nitrate level from siGFP and siVentX transfected macrophages. Data represent mean+SD of three different experiments. (E) Phagocytosis of siGFP and siVentX transfected macrophage. Red histogram represents transfection with siGFP; green histogram represents transfection with siVentX. Left panel: cells were incubated on ice; right panel: cells were incubated at 37° C. (F) Effects of VentX knockdown on mixed lymphocyte reaction. Irradiated macrophages that had been transfected with siGFP or siVentX were utilized to stimulate allogenic naïve CD4 T cells proliferation. The proliferation rates were represented by counts per minute (CPM). […] Statistically significant difference (p<0.05) was observed when 4×10^2 or 2×10^3 cells were added.
(Martinez, et al. 2008 Front Biosci 13:453-461; Mosser, et al. 2008 Nat Rev Immunol 8:958-969.) To investigate whether VentX is required for classical activation of macrophages, a loss-of-function approach by knockdown of VentX was used.
Human primary monocytes were transfected using the Human Monocyte Nucleofector Kit (Lonza) according to the manufacturer's instructions. Briefly, 5×10^6monocytes were resuspended into 100 μl nucleofector solution with 0.5 nmol of either VentX siRNA (forward: 5′-[…]-3′ (SEQ ID NO:4); reverse: 5′-[…]-3′ (SEQ ID NO:5)) or non-effective GFP siRNA (forward: 5′-[…]-3′ (SEQ ID NO:6); 5′-reverse: […]-3′ (SEQ ID NO:7)) before electroporation with nucleofector II Device (Lonza). Cells were then immediately removed from the device and incubated overnight with 1 ml pre-warmed Human Monocyte Nucleofector Medium containing 2 mM glutamine and 10% FBS. Cells were then resuspended into complete RPMI medium and treated with appropriate cytokines to induce differentiation into macrophages. Similarly, macrophages derived from monocytes were transfected with Human Macrophage Nucleofector Kit (Lonza) following the manufacturer's instructions.
Total RNA was isolated by the TRIzol reagent, and an equal amount of RNA was used for first-strand cDNA synthesis with SuperScript III First-Strand Synthesis System (Invitrogen) according to the manufacturer's protocol. To amplify VentX cDNA with conventional PCR, AccuPrime™ Taq DNA polymerase system (Invitrogen) was used following the manufacturer's instructions. PCR products were separated on 2% agarose gels and stained with ethidium bromide. GAPDH was used as an internal control. Quantitative measurement of VentX and cytokines cDNA were performed with SYBR Green on a LightCycler® (480 Real-Time PCR System; Roche). The primers used are listed in the Sequence Listing (SEQ ID NOs: 24-109).

macrophages = test: Macrophage classical activation after siRNA transfection, surface markers by flow cytometry; conditions: transfected macrophages
Experimental: (§1) Macrophages were generated through incubation of freshly isolated monocytes with 100 ng/mL M-CSF for 4 days. These macrophages were then transfected with siGFP or siVentX, respectively, and further cultured in RPMI 1640 medium for additional 3 days. Thereafter, cells were exposed to 1 μg/mL LPS plus 20 ng/mL γ-IFN for 6 hours. (A) Surface staining of CD40, CD80, CD86 and HLA-DR and intracellular staining of TNF-α and IL1-β were analyzed by flow cytometry. (B) Secreted TNF-α, IL1-β and IL12p70 from culture supernatants were determined with ELISA kits. (C) Reactive oxygen species (ROS) from siGFP or siVentX transfected macrophages were analyzed with fluorescence microscope (left) and flow cytometry (middle). […] (D) Nitrate level from siGFP and siVentX transfected macrophages. Data represent mean+SD of three different experiments. (E) Phagocytosis of siGFP and siVentX transfected macrophage. Red histogram represents transfection with siGFP; green histogram represents transfection with siVentX. Left panel: cells were incubated on ice; right panel: cells were incubated at 37° C. (F) Effects of VentX knockdown on mixed lymphocyte reaction. […]
(A) Effects VentX over-expression on the expression of LPS and IFN-γ pathways components. […] No significant binding of VentX to the promoter regions of STAT1 and JunB was detected by the ChIP assay. […]

activated macrophages = test: Detection of reactive oxygen species (ROS) and nitric oxide (NO) in activated macrophages
Experimental: as §1, with “macrophage.” for “macrophage. Red histogram represents transfection with siGFP; green histogram represents transfection with siVentX. Left panel: cells were incubated on ice; right panel: cells were incubated at 37° C. (F) Effects of VentX knockdown on mixed lymphocyte reaction.”
The ROS level in activated macrophages was detected with Image-iT® LIVE Green Reactive Oxygen Species Detection Kit (Invitrogen) basically following the manufacturer's instructions except that the results were analyzed by both fluorescence microscope and flow cytometry. The NO level was determined by Griess Reagent Kit for Nitrite Determination (Invitrogen) following the protocol provided by the manufacturer.

For “siVentX: VentX siRNA, forward 5′-UUCAGAAUCGCCGCAUGAAACACAAACGG-3′ (SEQ ID NO:4), reverse SEQ ID NO:5 (antisense CCGUUUGUGUUUCAUGCGGCGAUUCUGAA; listed as RNA, chemistry not given here)”, the “IL1-β cytokine mRNA expression” value [1] was 21.93 ± 1.8, the “IL6 cytokine mRNA expression” value [1] was 1.78 ± 0.14 and the “IL8 cytokine mRNA expression” value [1] was 172 ± 5.8. The “IL12p35 cytokine mRNA expression” value [1] was 0.37 ± 0.14, the “IL12p40 cytokine mRNA expression” value [1] was 0.61 ± 0.05 and the “M-SCSF cytokine mRNA expression” value [1] was 0.14 ± 0.01. For the same substance, the “TNF-α cytokine mRNA expression” value [1] was 0.18 ± 0.01, the “surface expression of CD40, CD80 and CD86” value (macrophages; LPS plus IFN-γ, HLA-DR not affected (FIG. 8A)) was “significantly down-regulated” and the “surface expression of CD119 (IFN-γ receptor 1), CD14 and TLR4” value (macrophages; flow cytometry (FIG. 9C)) was “significantly diminished”. For the same substance, the “reactive oxygen species produced” value (activated macrophages; transfected macrophages (FIG. 8C)) was “significantly less” and the nitric oxide produced (activated macrophages; transfected macrophages (FIG. 8D)) was “significantly less”.

— patent US10066272B2, “Human homeobox gene ventx and macrophage terminal differentiation and activation, compositions and methods thereof” (priority 2011, dated 2018)
